For data set [1], the target named is T1, BcPycTIR (Burkholderia cepacia, UniProt A0A0J5WTU0).
T1 sequence (A0A0J5WTU0 1-303): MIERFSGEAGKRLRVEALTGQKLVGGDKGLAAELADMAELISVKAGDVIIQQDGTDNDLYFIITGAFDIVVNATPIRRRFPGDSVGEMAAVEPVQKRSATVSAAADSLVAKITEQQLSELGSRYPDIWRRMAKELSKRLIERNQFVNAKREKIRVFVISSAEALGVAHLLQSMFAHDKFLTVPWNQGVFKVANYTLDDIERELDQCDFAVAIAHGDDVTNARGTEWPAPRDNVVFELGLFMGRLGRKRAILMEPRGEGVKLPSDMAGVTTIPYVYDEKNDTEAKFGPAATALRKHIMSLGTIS
The experiment in a line: HPLC of NAD+ cleavage. It is filed as biochemical. The note with it: 500 uM NAD+, 500 nM protein, 250 nM cUMP as activator, 25 C, 1 h.

In a further data set the target is PaPycC (Pseudomonas aeruginosa, UniProt P0DV40). The experiment in a line: thin-layer chromatography with alpha-32P-UTP. It is filed as biochemical. The conditions noted are these: labelled compound (trace); 10 mM MgCl2, 1 mM MnCl2, pH 8.5, 37 C.
The target of a further data set is T2, BcPycC (Burkholderia cepacia, UniProt A0A0J5ZXG5).
T2 sequence (A0A0J5ZXG5 1-229 limits assumed): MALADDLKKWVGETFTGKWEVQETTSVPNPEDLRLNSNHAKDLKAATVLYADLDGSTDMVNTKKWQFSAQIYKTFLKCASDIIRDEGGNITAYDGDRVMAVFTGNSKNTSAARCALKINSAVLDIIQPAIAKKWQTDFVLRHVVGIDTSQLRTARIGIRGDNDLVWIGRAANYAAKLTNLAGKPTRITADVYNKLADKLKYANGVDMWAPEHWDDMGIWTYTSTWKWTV
The experiment in a line: HPLC. The note with it: 10 mM MgCl2, 1 mM MnCl2, 37 C. It is filed as biochemical.

Data set [2] addresses T1, BcPycTIR. The data set can be described thus: fluorescence plate reader, initial rates. The conditions noted are these: 500 uM substrate, 1 uM protein, cUMP as activator, pH 7.5, 100 mM KCl. The format is biochemical.
Data set [3] deals with the molecule itself. The experiment in a line: negative stain electron microscopy.
The data set “crystal structure” concerns the molecule itself. The experiment in a line: crystal structure.

The record followed here is PMC9070634 (Cell, 2021).

PaPycC, sequence (P0DV40 whole entry): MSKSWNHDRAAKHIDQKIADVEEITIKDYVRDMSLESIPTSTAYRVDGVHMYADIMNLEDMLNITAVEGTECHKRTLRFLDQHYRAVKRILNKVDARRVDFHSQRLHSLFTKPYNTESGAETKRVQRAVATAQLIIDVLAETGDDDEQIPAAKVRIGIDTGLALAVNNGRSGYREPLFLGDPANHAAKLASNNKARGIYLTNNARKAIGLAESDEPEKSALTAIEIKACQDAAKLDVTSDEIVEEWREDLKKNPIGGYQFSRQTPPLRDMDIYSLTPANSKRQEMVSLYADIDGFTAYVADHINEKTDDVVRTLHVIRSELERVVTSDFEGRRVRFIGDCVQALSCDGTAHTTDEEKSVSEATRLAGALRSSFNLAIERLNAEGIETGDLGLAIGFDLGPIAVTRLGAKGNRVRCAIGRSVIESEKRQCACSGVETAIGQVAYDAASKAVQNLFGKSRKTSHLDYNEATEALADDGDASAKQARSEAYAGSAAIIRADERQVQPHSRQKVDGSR

Take `NC(=O)c1ccc[n+]([C@@H]2O[C@H](COP(=O)(O)OP(=O)(O)OC[C@H]3O[C@@H](n4cnc5c(N)ncnc54)[C@H](O)[C@@H]3O)[C@@H](O)[C@H]2O)c1` [NAD^+]: the “HPLC of NAD+ cleavage” value at BcPycTIR [1] is “Incubation of BcPycTIR with cUMP triggered robust NADase activity”.
`O=c1ccn([C@@H]2O[C@H](COP(=O)(O)OP(=O)(O)OP(=O)(O)O)[C@@H](O)[C@H]2O)c(=O)[nH]1` [UTP]: at PaPycC, the “thin-layer chromatography with alpha-32P-UTP” value is “demonstrated that PaPycC is an active uridylate cyclase”.
As to `O=c1ccn([C@@H]2O[C@@H]3COP(=O)(O)O[C@H]3[C@H]2O)c(=O)[nH]1` [cUMP], the “HPLC; MSMS against standard” value at BcPycC is “MSMS fragmentation spectra of a cUMP standard (bottom) and the BcPycC cyclase product (top)”.
As to `NC(=O)c1ccc[n+]([C@@H]2O[C@H](COP(=O)(O)OP(=O)(O)OC[C@H]3O[C@@H](n4cnc5c4ncn4ccnc54)[C@H](O)[C@@H]3O)[C@@H](O)[C@H]2O)c1` [ε-NAD^+], the “fluorescence plate reader, initial rates” value at BcPycTIR [2] is given as “NAD^+ cleavage activity of BcPycTIR using the fluorescent substrate ε-NAD^+”.

B1: TIR-domain effector protein from Burkholderia cepacia LK29 (BcPycTIR) (enzyme)
chain: T1 sequence (A0A0J5WTU0 1-303)
B1: in data set [3], the binding result is “binds”.

B2: clade B uridylate cyclase from Burkholderia cepacia LK29 (BcPycC) (enzyme)
chain: ALADDLKKWVGETFTGKWEVQETTSVPNPEDLRLNSNHAKDLKAATVLYADLDGSTDMVNTKKWQFSAQIYKTFLKCASDIIRDEGGNITAYDGDRVMAVFTGNSKNTSAARCALKINSAVLDIIQPAIAKKWQTDFVLRHVVGIDTSQLRTARIGIRGDNDLVWIGRAANYAAKLTNLAGKPTRITADVYNKLADKLKYANGVDMWAPEHWDDMGIWTYTSTWKWTV
For B2, in the data set “crystal structure”, the binding result is reported as “binds”.
